In patent publication US12655116B2, “Substituted isophthalic acid diamides” (Bayer Aktiengesellschaft, priority 2020, dated 2026):

Legend:
[1] = test system: MATIN; assay: Pre-emergence herbicidal action against MATIN; type: in vivo, Matricaria inodora
Outline: (§1)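 Pre-emergence soil-surface spray of formulated compound (WP or EC; 600 to 800 l/ha; 0.2% wetting agent) over seeds sown in sandy loam. After 3 weeks under greenhouse conditions, damage is estimated visually in percent against untreated plants.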

[2] = test system: AVEFA; assay: Pre-emergence herbicidal action against AVEFA; type: in vivo, Avena fatua; conditions: 80 g/ha, pre-emergence
Outline: as §1

[3] = test system: ECHCG; assay: Pre-emergence herbicidal action against ECHCG; type: in vivo, Echinochloa crus-galli
Outline: as §1

[4] = test system: AMARE; assay: Pre-emergence herbicidal action against AMARE; type: in vivo, Amaranthus retroflexus
Outline: as §1

[5] = test system: ABUTH; assay: Pre-emergence herbicidal action against ABUTH; type: in vivo, Abutilon theophrasti; conditions: for Pre-emergence action against ABUTH (herbicidal activity): 80 g/ha, scored visually after 3 weeks vs untreated controls (100% = plants have died, 0% = like control plants); for Pre-emergence action against ABUTH (herbicidal activity in percent): dosage 20 g/ha, scored visually after 3 weeks vs untreated controls, 100% = plants have died, 0% = like control plants
Outline: as §1

[6] = test system: DIGSA; assay: Post-emergence herbicidal action against DIGSA; type: in vivo, Digitaria sanguinalis; conditions: for Post-emergence action against DIGSA: 20 g/ha
Outline: (§2)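 Spray, one-leaf stage: WP or EC compound in water, 600–800 l/ha, 0.2% wetting agent. Plants held about 3 weeks in the greenhouse, then visually rated in percent of kill compared with untreated controls.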

[7] = test system: PHBPU; assay: Post-emergence herbicidal action against PHBPU; type: in vivo, Pharbitis purpurea
Outline: as §2

[8] = test system: SETVI; assay: Pre-emergence herbicidal action against SETVI; type: in vivo, Setaria viridis; conditions: dosage 80 g/ha
Outline: as §1

[9] = test system: ALOMY; assay: Pre-emergence herbicidal action against ALOMY; type: in vivo, Alopecurus myosuroides; conditions: 80 g/ha, pre-emergence, scored visually after 3 weeks vs untreated controls (100% = plants have died, 0% = like control plants)
Outline: as §1

[10] = test system: AVEFA; assay: Post-emergence herbicidal action against AVEFA; type: in vivo, Avena fatua; conditions: visual assessment about 3 weeks after treatment, 100% = plants have died, 0% = like control plants
Outline: as §2

[11] = test system: VERPE; assay: Pre-emergence herbicidal action against VERPE; type: in vivo, Veronica persica; conditions: dosage 80 g/ha
Outline: as §1

[12] = test system: DIGSA; assay: Pre-emergence herbicidal action against DIGSA; type: in vivo, Digitaria sanguinalis
Outline: as §1

[13] = test system: POLCO; assay: Pre-emergence herbicidal action against POLCO; type: in vivo, Polygonum convolvulus; conditions: dosage 80 g/ha
Outline: as §1

[14] = test system: ABUTH; assay: Post-emergence herbicidal action against ABUTH; type: in vivo, Abutilon theophrasti; conditions: visual assessment about 3 weeks after treatment vs untreated controls
Outline: as §2

[15] = test system: ECHCG; assay: Post-emergence herbicidal action against ECHCG; type: in vivo, Echinochloa crus-galli
Outline: as §2

[16] = test system: MATIN; assay: Post-emergence herbicidal action against MATIN; type: in vivo, Matricaria inodora; conditions: dosage 20 g/ha
Outline: as §2

[17] = test system: VIOTR; assay: Pre-emergence herbicidal action against VIOTR; type: in vivo, Viola tricolor
Outline: as §1

[18] = test system: VERPE; assay: Post-emergence herbicidal action against VERPE; type: in vivo, Veronica persica; conditions: 20 g/ha
Outline: as §2

[19] = test system: SETVI; assay: Post-emergence herbicidal action against SETVI; type: in vivo, Setaria viridis
Outline: as §2

[20] = test system: AMARE; assay: Post-emergence herbicidal action against AMARE; type: in vivo, Amaranthus retroflexus; conditions: 20 g/ha, visual assessment about 3 weeks after treatment, 100% = plants have died, 0% = like control plants
Outline: as §2

[21] = 20 g/ha, scored visually after 3 weeks vs untreated controls, 100% = plants have died, 0% = like control plants
[22] = 80 g/ha, scored visually after 3 weeks vs untreated controls (100% = plants have died, 0% = like control plants)

Row | SMILES | Pre-emergence action against MATIN in % ([1]; dosage 20 g/ha) [%] | Pre-emergence action against MATIN in % ([1]; dosage 80 g/ha) [%] | Pre-emergence action against ECHCG in % ([3]; 80 g/ha) [%] | Pre-emergence action against AMARE in % [4, 21] [%] | Pre-emergence action against AMARE in % [4, 22] [%] | Pre-emergence action against ABUTH (herbicidal activity) [5] [%] | Pre-emergence action against ABUTH (herbicidal activity in percent) [5] [%] | Post-emergence action against DIGSA [6] [%] | Post-emergence action against PHBPU in % ([7]; dosage 20 g/ha) [%] | Pre-emergence action against SETVI in % [8] [%] | Pre-emergence action against ALOMY (herbicidal activity) [9] [%] | Post-emergence action at 20 g/ha against AVEFA in % [10] [%] | Pre-emergence action against VERPE in % [11] [%] | Pre-emergence action against DIGSA in % ([12]; dosage 20 g/ha) [%] | Pre-emergence action against DIGSA in % ([12]; dosage 80 g/ha) [%] | Pre-emergence action against POLCO in % [13] [%] | Post-emergence action against ABUTH in % ([14]; dosage 5 g/ha) [%] | Post-emergence action against ABUTH in % ([14]; dosage 20 g/ha) [%] | Post-emergence action against ECHCG in % ([15]; dosage 5 g/ha) [%] | Post-emergence action against ECHCG in % ([15]; dosage 20 g/ha) [%] | further results
1 | CCn1nnnc1NC(=O)c1ccc(C(F)(F)F)c(C(=O)NCC2CC2)c1C [Example 2-28] | 100 | 100 | 100 | 100 | 100 | 100 | 100 | 80 | 80 | 100 | 90 | 90 | 80 | 100 | 100 | 90 | 80 | 80 | 80 | 80 | Pre-emergence action against AVEFA in % [2]: 90%; Pre-emergence action against ECHCG in % ([3]; 20 g/ha): 80%; Post-emergence action at 5 g/ha against AVEFA in % ([10]; 5 g/ha): 80%; Post-emergence action against MATIN in % [16]: 80%; Pre-emergence action against VIOTR in % ([17]; dosage 20 g/ha): 100%; Pre-emergence action against VIOTR in % ([17]; dosage 80 g/ha): 100%
2 | Cc1c(C(=O)Nc2nnnn2C)ccc(C(F)F)c1C(=O)NCC(F)F [Example 1-49] | 90 | 100 | 80 | 100 | 100 | 100 | 80 | 90 | 90 | 80 | 80 | 80 | 100 | 90 | 100 | 90 | 90 | 90 | 80 | 90 | Post-emergence action against VERPE in % [18]: 90%; Post-emergence action against DIGSA in % ([6]; 5 g/ha): 80%; Post-emergence action against PHBPU in % ([7]; dosage 5 g/ha): 80%; Post-emergence action against SETVI in % ([19]; dosage 5 g/ha): 90%; Post-emergence action against SETVI in % ([19]; dosage 20 g/ha): 100%; Post-emergence action at 20 g/ha against AMARE in % [20]: 90%; Post-emergence action against MATIN in % [16]: 80%; Pre-emergence action against VIOTR in % ([17]; dosage 80 g/ha): 100%
